Data published in US5631222A, “Endothelin-antagonizing peptide” (Kyowa Hakko Kogyo Co., Ltd., priority 1993, dated 1997).
Positions of bridges follow the written chain, without caps; N, C: chain ends. Non-standard residues stand in square brackets, D forms with d. Residues, ends and D or L forms follow the SMILES beside them. 2Thi = N[C@@H](Cc1cccs1)C(=O)O; Cha = N[C@@H](CC1CCCCC1)C(=O)O; Nva = CCC[C@H](N)C(=O)O

Molecular target: T1, endothelin receptor (Bos taurus, UniProt P28088)
T1 construct: the suspension was used as a membrane fraction liquid; from tissue; host or cells: bovine cerebellum membrane fraction
T1 sequence (P28088 27-441): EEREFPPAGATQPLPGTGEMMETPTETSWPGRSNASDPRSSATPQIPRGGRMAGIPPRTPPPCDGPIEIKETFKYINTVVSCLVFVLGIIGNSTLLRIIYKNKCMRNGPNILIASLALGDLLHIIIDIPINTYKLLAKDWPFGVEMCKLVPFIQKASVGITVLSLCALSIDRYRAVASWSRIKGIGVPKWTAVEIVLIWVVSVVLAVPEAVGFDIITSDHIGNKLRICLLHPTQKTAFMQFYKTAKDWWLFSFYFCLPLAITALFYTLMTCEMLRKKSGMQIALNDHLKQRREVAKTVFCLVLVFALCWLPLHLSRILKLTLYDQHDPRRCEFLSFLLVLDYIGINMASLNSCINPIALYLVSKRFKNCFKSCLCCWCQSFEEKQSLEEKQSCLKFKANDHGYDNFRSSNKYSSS
Assay: Endothelin receptor-antagonizing activity: inhibition of 125I-endothelin-1 binding to bovine cerebellum membrane fraction
Conditions: 125I-Endothelin-1, bovine cerebellum membrane fraction, 25° C. for 2 hours; read-out: IC50: Concentration causing 50% inhibition of endothelin1 binding
Method: Bovine cerebellum tissue was homogenized at 4° C. by using POLYTRON (type PT10/35, manufactured by Kinematic Gmbh Co.) in a buffer solution A (1 mM NaHCO3, 5 mM ethylenediaminetetraacetic acid, 5 μg/ml leupeptin, 5 μg/ml pepstatin A, 40 μM phenylmethylsulfonyl fluoride, pH 8.3).
The obtained suspension was centrifuged for 10 minutes at 8,000 G and 4° C., and the resulting supernatant was centrifuged for 60 minutes at 40,000 G and 4° C. to obtain pellets. The obtained pellets were suspended in a buffer solution A and again centrifuged for 60 minutes at 40,000 G and 4° C. The resulting solid substance was prepared as a suspension containing 2 mg/ml of protein, and the suspension was used as a membrane fraction liquid. […] These mixtures were incubated at 25° C. for 2 hours, and then filtered with a GF/B glass filter (produced by Whatman Co.). […] The inhibition ratio against endothelin receptor binding activity was calculated according to the following equation:
Inhibition ratio (%)=(C-A/C-B)×100
B: Radioactivity in the presence of unlabelled endothelin-1
C: Radioactivity in the absence of both of the compound shown in Table 2 and unlabelled endothelin-1

SMILES	IC50 [nM]
CC[C@H](C)[C@H](NC(=O)[C@H](CC(=O)O)NC(=O)[C@H](CC(C)C)NC(=O)[C@H](Cc1c[nH]cn1)NC(=O)[C@H](C)NC(=O)[C@H](Cc1ccccc1)NC(=O)[C@H](Cc1ccc(O)cc1)NC(=O)[C@@H](NC(=O)[C@H](Cc1c[nH]c2ccccc12)NC(=O)[C@@H]1CSSC[C@H](N)C(=O)N[C@@H](CC(N)=O)C(=O)N[C@@H](Cc2c[nH]c3ccccc23)C(=O)N[C@@H](Cc2c[nH]cn2)C(=O)NCC(=O)N[C@@H]([C@@H](C)O)C(=O)N[C@@H](C)C(=O)N2CCC[C@H]2C(=O)N1)C(C)C)C(=O)N[C@H](C(=O)N[C@@H](Cc1c[nH]c2ccccc12)C(=O)O)[C@@H](C)CC [Compound 33] (H-CNWHGTAPCWVYFAHLDIIW-OH; disulfide 1-9)	0.16
CC[C@H](C)[C@H](NC(=O)[C@H](Cc1cccs1)NC(=O)[C@@H](NC(=O)[C@H](CC(C)C)NC(=O)[C@H](Cc1c[nH]cn1)NC(=O)[C@H](C)NC(=O)[C@H](Cc1ccccc1)NC(=O)[C@H](Cc1ccc(O)cc1)NC(=O)[C@@H](NC(=O)[C@H](Cc1c[nH]c2ccccc12)NC(=O)[C@@H]1CSSC[C@H](N)C(=O)N[C@@H](CC(=O)O)C(=O)N[C@@H](Cc2c[nH]c3ccccc23)C(=O)N[C@@H](CCCCN)C(=O)NCC(=O)N[C@@H]([C@@H](C)O)C(=O)N[C@@H](CO)C(=O)N2CCC[C@H]2C(=O)N1)C(C)C)[C@@H](C)O)C(=O)N[C@@H](Cc1c[nH]c2ccccc12)C(=O)O [Compound 35] (H-CDWKGTSPCWVYFAHLT[2Thi]IW-OH; disulfide 1-9)	1.6
CC[C@H](C)[C@H](NC(=O)[C@H](CC(C)C)NC(=O)[C@@H](NC(=O)[C@H](CC(C)C)NC(=O)[C@H](Cc1c[nH]cn1)NC(=O)[C@H](C)NC(=O)[C@H](Cc1ccccc1)NC(=O)[C@H](Cc1ccc(O)cc1)NC(=O)[C@@H](NC(=O)[C@H](Cc1c[nH]c2ccccc12)NC(=O)[C@@H]1CSSC[C@H](N)C(=O)N[C@@H](CC(N)=O)C(=O)N[C@@H](Cc2c[nH]c3ccccc23)C(=O)N[C@@H](Cc2c[nH]cn2)C(=O)NCC(=O)N[C@@H]([C@@H](C)O)C(=O)N[C@@H](C)C(=O)N2CCC[C@H]2C(=O)N1)C(C)C)[C@@H](C)O)C(=O)N[C@@H](Cc1c[nH]c2ccccc12)C(=O)O [Compound 37] (H-CNWHGTAPCWVYFAHLTLIW-OH; disulfide 1-9)	8.7
CC[C@H](C)[C@H](NC(=O)[C@H](CC1CCCCC1)NC(=O)[C@@H](NC(=O)[C@H](CC(C)C)NC(=O)[C@H](Cc1c[nH]cn1)NC(=O)[C@H](C)NC(=O)[C@H](Cc1ccccc1)NC(=O)[C@H](Cc1ccc(O)cc1)NC(=O)[C@@H](NC(=O)[C@H](Cc1c[nH]c2ccccc12)NC(=O)[C@@H]1CSSC[C@H](N)C(=O)N[C@@H](CC(N)=O)C(=O)N[C@@H](Cc2c[nH]c3ccccc23)C(=O)N[C@@H](Cc2c[nH]cn2)C(=O)NCC(=O)N[C@@H]([C@@H](C)O)C(=O)N[C@@H](C)C(=O)N2CCC[C@H]2C(=O)N1)C(C)C)[C@@H](C)O)C(=O)N[C@@H](Cc1c[nH]c2ccccc12)C(=O)O [Compound 39] (H-CNWHGTAPCWVYFAHLT[Cha]IW-OH; disulfide 1-9)	280
CC[C@H](C)[C@H](NC(=O)[C@H](CC(C)C)NC(=O)[C@@H](NC(=O)[C@H](CC(C)C)NC(=O)[C@H](Cc1c[nH]cn1)NC(=O)[C@H](C)NC(=O)[C@H](Cc1ccccc1)NC(=O)[C@H](Cc1ccc(O)cc1)NC(=O)[C@@H](NC(=O)[C@H](Cc1c[nH]c2ccccc12)NC(=O)[C@@H]1CC(=O)NCC(=O)N[C@@H](CC(N)=O)C(=O)N[C@@H](Cc2c[nH]c3ccccc23)C(=O)N[C@@H](Cc2c[nH]cn2)C(=O)NCC(=O)N[C@@H]([C@@H](C)O)C(=O)N[C@@H](C)C(=O)N2CCC[C@H]2C(=O)N1)C(C)C)[C@@H](C)O)C(=O)N[C@@H](Cc1c[nH]c2ccccc12)C(=O)O [Compound 40] (GNWHGTAPDWVYFAHLTLIW-OH; lactam N-9)	34
CC[C@H](C)[C@H](NC(=O)[C@H](Cc1cccs1)NC(=O)[C@@H](NC(=O)[C@H](CC(C)C)NC(=O)[C@H](Cc1c[nH]cn1)NC(=O)[C@H](C)NC(=O)[C@H](Cc1ccccc1)NC(=O)[C@H](Cc1ccc(O)cc1)NC(=O)[C@@H](NC(=O)[C@H](Cc1c[nH]c2ccccc12)NC(=O)[C@@H]1CC(=O)NCC(=O)N[C@@H](CC(N)=O)C(=O)N[C@@H](Cc2c[nH]c3ccccc23)C(=O)N[C@@H](Cc2c[nH]cn2)C(=O)NCC(=O)N[C@@H]([C@@H](C)O)C(=O)N[C@@H](C)C(=O)N2CCC[C@H]2C(=O)N1)C(C)C)[C@@H](C)O)C(=O)N[C@@H](Cc1c[nH]c2ccccc12)C(=O)O [Compound 41] (GNWHGTAPDWVYFAHLT[2Thi]IW-OH; lactam N-9)	2.5
CC[C@H](C)[C@H](NC(=O)[C@H](Cc1cccs1)NC(=O)[C@@H](NC(=O)[C@H](CC(C)C)NC(=O)[C@H](Cc1c[nH]cn1)NC(=O)[C@H](C)NC(=O)[C@H](Cc1ccccc1)NC(=O)[C@H](Cc1ccc(O)cc1)NC(=O)[C@@H](NC(=O)[C@H](Cc1c[nH]c2ccccc12)NC(=O)[C@H](CC(=O)O)NC(=O)[C@@H]1CCCN1C(=O)[C@H](C)NC(=O)[C@@H](NC(=O)CNC(=O)[C@H](Cc1c[nH]cn1)NC(=O)[C@H](Cc1c[nH]c2ccccc12)NC(=O)[C@H](CC(N)=O)NC(=O)CN)[C@@H](C)O)C(C)C)[C@@H](C)O)C(=O)N[C@H](Cc1c[nH]c2ccccc12)C(=O)O [Compound 42, HGlyAsnTrpHisGlyThrAlaProAspTrpValTyrPheAlaHisLeuThrThiIleD-TrpOH] (H-GNWHGTAPDWVYFAHLT[2Thi]I[dW]-OH)	210
CCC[C@H](NC(=O)[C@@H](Cc1c[nH]c2ccccc12)NC(=O)[C@H](C)NC(=O)[C@H](Cc1ccccc1)NC(=O)[C@H](Cc1ccc(O)cc1)NC(=O)[C@@H](NC(=O)[C@H](Cc1c[nH]c2ccccc12)NC(=O)[C@H](CC(=O)O)NC(=O)[C@@H]1CCCN1C(=O)[C@H](C)NC(=O)[C@@H](NC(=O)CNC(=O)[C@H](Cc1c[nH]cn1)NC(=O)[C@H](Cc1c[nH]c2ccccc12)NC(=O)[C@H](CC(N)=O)NC(=O)CN)[C@@H](C)O)C(C)C)C(=O)N[C@@H](CCC(=O)O)C(=O)N[C@H](C(=O)N[C@@H](C(=O)N[C@@H](Cc1c[nH]c2ccccc12)C(=O)O)[C@H](C)CC)[C@@H](C)CC [Compound 44, HGlyAsnTrpHisGlyThrAlaProAspTrpValTyrPheAlaD-TrpNvaGluIleD-IleTrpOH] (H-GNWHGTAPDWVYFA[dW][Nva]EI[dI]W-OH)	290
CC[C@H](C)[C@H](NC(=O)[C@H](CCSC)NC(=O)[C@H](CO)NC(=O)[C@H](CC(C)C)NC(=O)[C@H](Cc1c[nH]cn1)NC(=O)[C@H](C)NC(=O)[C@@H](Cc1ccccc1)NC(=O)[C@H](Cc1ccc(O)cc1)NC(=O)[C@@H](NC(=O)[C@H](Cc1c[nH]c2ccccc12)NC(=O)[C@H](CC(=O)O)NC(=O)[C@@H]1CCCN1C(=O)[C@H](C)NC(=O)[C@@H](NC(=O)CNC(=O)[C@H](Cc1c[nH]cn1)NC(=O)[C@H](Cc1c[nH]c2ccccc12)NC(=O)[C@H](CC(N)=O)NC(=O)CN)[C@@H](C)O)C(C)C)C(=O)N[C@@H](Cc1c[nH]c2ccccc12)C(=O)O [Compound 45, HGlyAsnTrpHisGlyThrAlaProAspTrpValTyrD-PheAlaHisLeuSerMetIleTrpOH] (H-GNWHGTAPDWVY[dF]AHLSMIW-OH)	3.3
CC[C@H](C)[C@H](NC(=O)[C@H](Cc1cccs1)NC(=O)[C@@H](NC(=O)[C@H](CC(C)C)NC(=O)[C@H](Cc1c[nH]cn1)NC(=O)[C@H](C)NC(=O)[C@H](Cc1ccccc1)NC(=O)[C@H](Cc1ccc(O)cc1)NC(=O)[C@@H]1CCCN1C(=O)[C@H](Cc1c[nH]c2ccccc12)NC(=O)[C@H](CC(=O)O)NC(=O)[C@@H]1CCCN1C(=O)[C@H](C)NC(=O)[C@@H](NC(=O)CNC(=O)[C@H](Cc1c[nH]cn1)NC(=O)[C@H](Cc1c[nH]c2ccccc12)NC(=O)[C@H](CC(N)=O)NC(=O)CN)[C@@H](C)O)[C@@H](C)O)C(=O)N[C@@H](Cc1c[nH]c2ccccc12)C(=O)O [Compound 48, HGlyAsnTrpHisGlyThrAlaProAspTrpProTyrPheAlaHisLeuThrThiIleTrpOH] (H-GNWHGTAPDWPYFAHLT[2Thi]IW-OH)	5
CC[C@H](C)[C@@H]1NC(=O)[C@H](Cc2ccccc2)NC(=O)CNC(=O)C[C@@H](C(=O)N[C@@H](Cc2c[nH]c3ccccc23)C(=O)N[C@H](C(=O)N[C@@H](Cc2ccc(O)cc2)C(=O)N[C@@H](Cc2ccccc2)C(=O)N[C@@H](C)C(=O)N[C@@H](Cc2c[nH]cn2)C(=O)N[C@@H](CC(C)C)C(=O)N[C@@H](CC(=O)O)C(=O)N[C@H](C(=O)N[C@H](C(=O)N[C@@H](Cc2c[nH]c3ccccc23)C(=O)O)[C@@H](C)CC)[C@@H](C)CC)C(C)C)NC(=O)[C@H](CC(N)=O)NC(=O)CNC(=O)[C@H](Cc2c[nH]c3ccccc23)NC(=O)CNC1=O [Compound 51] (GFIGWGNDWVYFAHLDIIW-OH; lactam N-8)	3.3
